Source: patent publication US20040142317A1, “Use of amino acid transporter atbo,+ as a delivery system for drugs and prodrugs” (priority 2003, published 2004)
Where two headings read alike, the source gives them in different places.

Assays:
[1] = molecular target: T1, mouse ATB^0,+ (Mus musculus, UniProt Q9JMA9); settings: for Current in X. laevis oocytes (nA), L-isomer: L-amino acid 1 mM, NaCl pH 7.5
T1 sequence (Q9JMA9 1-638): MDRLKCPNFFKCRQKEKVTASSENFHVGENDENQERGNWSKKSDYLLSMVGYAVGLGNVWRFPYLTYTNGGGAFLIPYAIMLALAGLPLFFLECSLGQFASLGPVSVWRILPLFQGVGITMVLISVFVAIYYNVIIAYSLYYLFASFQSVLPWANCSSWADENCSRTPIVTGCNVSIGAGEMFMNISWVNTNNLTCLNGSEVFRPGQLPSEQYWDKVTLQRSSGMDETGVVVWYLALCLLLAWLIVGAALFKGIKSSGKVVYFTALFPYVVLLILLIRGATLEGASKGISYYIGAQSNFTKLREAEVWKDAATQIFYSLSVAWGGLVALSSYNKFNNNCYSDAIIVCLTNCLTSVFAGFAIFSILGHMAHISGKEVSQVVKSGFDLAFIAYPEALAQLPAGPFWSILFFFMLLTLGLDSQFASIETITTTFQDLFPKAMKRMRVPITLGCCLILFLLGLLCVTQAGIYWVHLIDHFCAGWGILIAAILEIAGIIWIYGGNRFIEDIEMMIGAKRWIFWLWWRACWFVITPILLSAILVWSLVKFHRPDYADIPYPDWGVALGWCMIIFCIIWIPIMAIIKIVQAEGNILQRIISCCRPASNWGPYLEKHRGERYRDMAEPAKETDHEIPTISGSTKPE

[2] = molecular target: T2, OCTN2 (Homo sapiens, UniProt O76082); settings: literature values; cited from earlier work
T2 sequence (O76082 1-557): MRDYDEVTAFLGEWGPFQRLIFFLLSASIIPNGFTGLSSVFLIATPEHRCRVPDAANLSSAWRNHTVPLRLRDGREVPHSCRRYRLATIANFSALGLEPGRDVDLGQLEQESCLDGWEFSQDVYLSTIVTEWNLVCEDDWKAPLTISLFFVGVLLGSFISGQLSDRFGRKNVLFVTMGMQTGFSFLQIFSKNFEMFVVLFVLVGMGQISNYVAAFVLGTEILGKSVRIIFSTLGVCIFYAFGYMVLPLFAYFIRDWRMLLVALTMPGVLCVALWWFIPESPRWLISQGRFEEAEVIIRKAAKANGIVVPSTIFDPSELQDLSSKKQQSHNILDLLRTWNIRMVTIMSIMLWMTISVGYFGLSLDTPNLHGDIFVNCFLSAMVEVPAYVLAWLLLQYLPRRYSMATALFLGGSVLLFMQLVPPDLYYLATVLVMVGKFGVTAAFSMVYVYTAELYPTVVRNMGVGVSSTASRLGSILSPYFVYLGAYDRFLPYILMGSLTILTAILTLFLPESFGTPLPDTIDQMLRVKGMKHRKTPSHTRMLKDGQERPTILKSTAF

[3] = molecular target: T1, mouse ATB^0,+
[4] = molecular target: T1, mouse ATB^0,+; test: Transport of radiolabeled substrates in HRPE cells expressing cloned mouse ATB0,+; format: cell-based
[5] = molecular target: T3, ATB^0 (Homo sapiens, UniProt Q15758); test: cell-based
T3 sequence (Q15758 1-541): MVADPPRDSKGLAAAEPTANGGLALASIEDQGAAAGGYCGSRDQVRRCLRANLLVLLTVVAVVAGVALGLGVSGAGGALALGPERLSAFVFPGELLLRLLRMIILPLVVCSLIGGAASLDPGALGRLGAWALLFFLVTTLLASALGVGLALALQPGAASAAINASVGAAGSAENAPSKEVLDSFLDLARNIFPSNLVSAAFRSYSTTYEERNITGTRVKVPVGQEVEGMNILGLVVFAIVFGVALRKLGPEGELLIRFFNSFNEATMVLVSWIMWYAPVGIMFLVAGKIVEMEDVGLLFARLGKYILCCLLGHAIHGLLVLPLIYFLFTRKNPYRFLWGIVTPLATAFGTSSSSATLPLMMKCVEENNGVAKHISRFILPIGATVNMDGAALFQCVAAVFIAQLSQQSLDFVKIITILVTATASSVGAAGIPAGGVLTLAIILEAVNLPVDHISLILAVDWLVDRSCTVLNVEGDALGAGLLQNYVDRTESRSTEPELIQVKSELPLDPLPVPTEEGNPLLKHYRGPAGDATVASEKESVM

[6] = molecular target: T1, mouse ATB^0,+; test: cell-based
[7] = tested on: ATB^0,+ mRNA; test: ATB0,+ mRNA levels in mouse intestine after bacterial lipopolysaccharide injection (semi-quantitative RT-PCR); format: in vivo; settings: 5 mg/kg i.p., 16 h; GAPDH as internal control
Description: Mice were injected i.p. with either saline (control) or bacterial lipopolysaccharide (5 mg/kg body wt). 16 h following injection, mice were killed and the various segments of the intestine (J, jejunum; L, ileum; C, colon) were collected for mRNA isolation. Five-week-old IL2^+/+ and IL2^−/− mice were killed and the various segments of the intestine were collected for mRNA isolation. Semiquantitative RT-PCR with low number of PCR cycles was carried out with primer pairs specific for mouse ATB^0,+, mouse glyceraldehyde-3-phosphate dehydrogenase (GAPDH), and mouse cyclophilin C (CypC) and the RT-PCR products were detected by Southern hybridization and the signals were quantified.
Since D-serine is an important modulator of glutamatergic neurotransmission and other D-amino acids may also have significant biological effects, it is of clinical relevance to know if there are any pathological conditions in which the intestinal absorption of D-amino acids may be altered. Therefore, the present inventors assessed the expression of ATB^0,+ in the intestinal tract under inflammatory conditions that are known to affect intestinal function. The present inventors used two different animal models for this purpose. […] The steady-state levels of ATB^0,+ mRNA were examined by a semi-quantitative RT-PCR in the jejunum, ileum, and colon. […]

[8] = molecular target: T1, mouse ATB^0,+; remark: listed apart in the source
[9] = substrate: NC(=N[N+](=O)[O-])Nc1cccc([C@H](N)C(=O)O)c1; test: cells, lysate or membranes; settings: pH 7.5
[10] = substrate: N=C(NCCC[C@H](N)C(=O)O)N[N+](=O)[O-]; test: cells, lysate or membranes; settings: other: oocytes, various concentrations; pH 7.5
[11] = HRPE cells, radiolabeled substrate

Molecule: C[N+](C)(C)CC(O)CC(=O)[O-] (stereo not drawn) [carnitine, β-hydroxy-γ-trimethylaminobutyrate]
- induced inward currents ([1]; 10 mM carnitine, esters under similar conditions): ~300 nA
- Hill coefficient (nH) for Cl− activation of substrate-induced currents ([1]; oocytes, carnitine 1 mM): 0.9±0.2
- Hill coefficient (nH) for Na+ activation of substrate-induced currents ([1]; oocytes, carnitine 1 mM): 1.9±0.5
- K0.5 for Cl− of substrate-induced currents ([1]; oocytes, carnitine 1 mM): 15 ± 5 mM
- K0.5 for Na+ of substrate-induced currents ([1]; oocytes, carnitine 1 mM): 25 ± 4 mM
- K0.5 (concentration inducing half-maximal current; Michaelis-Menten constant) ([1]; oocytes, membrane potential −50 mV): 1.8 ± 0.4 mM
- Kt of OCTN2 [2]: 5 to 15 µM
- IC50 [3]: 600 ± 100 µM
- Hill coefficient for Na+ activation of substrate transport ([4]; HRPE cells): 1.6±0.1
- K0.5 for Na+ in substrate transport ([4]; HRPE cells): 54 ± 4 mM
- Vmax of ATB^0,+-mediated transport ([4]; HRPE cells): 72±2 nmol/10^6 cells/15 min
- Michaelis-Menten constant (Kt) of transport via mouse ATB^0,+ [4, 11]: 0.83 ± 0.08 mM
- transport in ATB^0,+ cDNA-transfected cells compared to vector-transfected cells [4, 11]: 16 fold
- reduction of transport on removal of Cl− (gluconate) ([4]; carnitine 15 μM, HRPE cells): ~60%
- transport when Na+ substituted with N-methyl-D-glucamine ([4]; carnitine 15 μM, HRPE cells): completely abolished
- Kt of ATB^0,+ (discussion summary) ([4]; summary of HRPE cell and oocyte values): 1 to 2 mM

Molecule: C[C@H](N)C(=O)O [Alanine]
- Current in X. laevis oocytes (nA), L-isomer [1]: 650 ± 86 nA
- Ki [5]: 22.5 ± 4.2 µM
- Ki [6]: 101 ± 14.2 µM

Molecule: lipopolysaccharide
- increase of ATB^0,+ mRNA versus saline-treated mice, colon [7]: 2 fold
- increase of ATB^0,+ mRNA versus saline-treated mice, ileum [7]: 7 fold

Molecule: N[C@@H](Cc1ccccc1)C(=O)O [Phenylalanine]
- Current in X. laevis oocytes (nA), L-isomer [1]: 275 ± 58 nA
- Ki [5]: 4230 ± 999 µM
- Ki [3]: 68.6 ± 2.4 µM

Molecule: N[C@H](C(=O)O)c1ccccc1 [Phenylglycine, L-phenylglycine]
- Ki [5]: 19 ± 5.5 µM
- inhibition [8]: 100%
- Ki [6]: 5.3 ± 0.4 µM
- affinity of ATB^0,+ relative to ATB^0 ([3]; from Ki values of Table 5): 4 times
- affinity of ATB^0,+ relative to affinity for glycine ([3]; from Ki values of Table 5): 19 times
- affinity of ATB^0,+ relative to affinity for phenylalanine ([3]; from Ki values of Table 5): 13 times
- affinity of ATB^0,+ relative to b^0,+AT ([3]; from Ki values of Table 5): 53 times
- transport in ATB^0,+-expressing cells versus vector-transfected cells (in words) ([4]; HRPE cells, [14C]phenylglycine 10 μM or [8-3H]-valacyclovir 1.25 μM): three times higher
- cDNA-specific transport by ATB^0,+ relative to ATB^0 and mb^0,+AT ([4]; [14C]phenylglycine 10 μM, HRPE cells): ten times higher

B1: mouse ATB^0,+ (Mus musculus) (protein)
chain: MDRLKCPNFFKCRQKEKVTASSENFHVGENDENQERGNWSKKSDYLLSMVGYAVGLGNVWRFPYLTYTNGGGAFLIPYAIMLALAGLPLFFLECSLGQFASLGPVSVWRILPLFQGVGITMVLISVFVAIYYNVIIAYSLYYLFASFQSVLPWANCSSWADENCSRTPIVTGCNVSIGAGEMFMNISWVNTNNLTCLNGSEVFRPGQLPSEQYWDKVTLQRSSGMDETGVVVWYLALCLLLAWLIVGAALFKGIKSSGKVVYFTALFPYVVLLILLIRGATLEGASKGISYYIGAQSNFTKLREAEVWKDAATQIFYSLSVAWGGLVALSSYNKFNNNCYSDAIIVCLTNCLTSVFAGFAIFSILGHMAHISGKEVSQVVKSGFDLAFIAYPEALAQLPAGPFWSILFFFMLLTLGLDSQFASIETITTTFQDLFPKAMKRMRVPITLGCCLILFLLGLLCVTQAGIYWVHLIDHFCAGWGILIAAILEIAGIIWIYGGNRFIEDIEMMIGAKRWIFWLWWRACWFVITPILLSAILVWSLVKFHRPDYADIPYPDWGVALGWCMIIFCIIWIPIMAIIKIVQAEGNILQRIISCCRPASNWGPYLEKHRGERYRDMAEPAKETDHEIPTISGSTKPE
- Km [9]: 106 ± 1 µM
- Km [10]: 348 ± 5 µM
